This passage reports IC50 results from patent publication US9051318B2, “Pyrido [2, 3-B] pyrazine compounds and their therapeutical uses such as for inhibiting ATP consuming proteins and treating diseases associated therewith” (Merck Patent GmbH, priority 2011, dated 2015).

Some results are limits rather than exact numbers.

Assay [1] relates to TGF-beta-induced phosphorylation of Smad2 (Ser465/467) and Smad3 (Ser423/425) in Mv1-Lu cells. Put plainly: Inhibition of Smad2/3 phosphorylation in Mv1Lu cells (Example 10). The settings on record: Neogale vison, TGF-beta 1 5 ng/ml, phospho-Smad2/3 ELISA, read-out: TβR activity (Example 10). It counts as cell-based, mink Mustela vison. On the procedure: This assay was used to determine the inhibitory potency of compounds on TGF-beta-induced phosphorylation of Smad2 (Ser465/467) and Smad3 (Ser423/425). Mv1-Lu cells (lung epithelial cell line from mink Mustela vison; ATCC number: CCL-64) were seeded in DMEM (Invitrogen) supplemented with 10% fetal bovine serum (Pan Biotech) at a defined cell density in 24-well or 96-well plates (24-well plate: 1.5×10^5 cells per well; 96-well plate: 4×10^4 cells per well). Cell cultures were incubated in DMEM at 37° C. and 10% CO2. On the next day, the medium was replaced and cells were serum-starved for 16-20 hours. The following day, serial dilutions of compounds were added to the wells, pre-incubated for 1.5 hrs before recombinant TGF-beta 1 ligand (final concentration 5 ng/ml; R&D systems) was added. After one hour of ligand stimulation, lysates were prepared and analyzed using an enzyme-linked immunosorbent assay kit (PathScan Phospho-Smad2 Kit, Cell Signaling Technologies). The ELISA detects phosphorylated Smad2 as well as phosphorylated Smad3 with the phospho-specific antibody. TGF-beta stimulated cells and unstimulated cells served as positive and negative controls (100% and background control). The concentration of the vehicle DMSO was kept constant at 0.2% (v/v) in all wells. Dose-response relationships were fitted using curve fitting algorithms of the RS1 statistics software package (Brooks Automation Inc. RS/1—Statistical Tools Handbook. Release 6.2) to determine the concentration at which half-maximal inhibition (IC50) of Smad2/3 phosphorylation was achieved.
(An ELISA detects its analyte on a solid surface through an enzyme-linked reagent.)

The target of assay [2] is T1, GST-ALK5 (Homo sapiens, UniProt P36897).
T1 sequence (P36897 34-503): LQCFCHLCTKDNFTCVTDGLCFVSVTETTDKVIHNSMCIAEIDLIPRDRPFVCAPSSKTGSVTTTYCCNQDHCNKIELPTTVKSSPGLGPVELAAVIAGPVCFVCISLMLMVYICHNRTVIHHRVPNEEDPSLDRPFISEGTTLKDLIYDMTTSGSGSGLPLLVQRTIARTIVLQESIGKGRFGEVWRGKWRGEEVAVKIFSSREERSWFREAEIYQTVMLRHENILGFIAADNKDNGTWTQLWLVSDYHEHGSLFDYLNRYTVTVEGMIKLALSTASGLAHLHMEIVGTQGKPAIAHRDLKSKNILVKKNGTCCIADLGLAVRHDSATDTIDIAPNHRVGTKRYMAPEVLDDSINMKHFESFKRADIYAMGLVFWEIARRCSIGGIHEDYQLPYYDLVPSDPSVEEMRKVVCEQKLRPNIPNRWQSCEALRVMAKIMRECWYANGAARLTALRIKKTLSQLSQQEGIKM
Nature of the assay: In-vitro (enzyme) kinase flashplate assay, TGF-beta receptor kinase (Example 9). The format is biochemical. The settings on record: GST-ALK5, GST-SMAD2 substrate, 3 mM ATP, 30° C. 45 min; read-out: TβR activity (Example 9). The protocol: The kinase assay was carried out as 384-well flashplate assay. 31.2 nM of GST-ALK5, 439 nM of GST-SMAD2 and 3 mM of ATP (with 0.3 μCi of ^33P-ATP/well) were incubated in a total volume of 35 μl (20 mM of HEPES, 10 mM of MgCl2, 5 mM of MnCl2, 1 mM of DTT, 0.1% of BSA, pH 7.4) without or with test substance (5-10 concentrations) at 30° C. for 45 min. The reaction was stopped using 25 μl of 200 mM EDTA solution, filtered with suction at room temperature after 30 min, and the wells were washed with 3 times 100 μl of 0.9% NaCl solution. Radioactivity was measured in the TopCount. The IC50 values were calculated using RS 1.

On to `Fc1ccccc1-c1cc(Nc2ccncc2)c2nccnc2n1` [Compound 1, [6-(2-Fluorophenyl)-pyrido[2,3-b]pyrazin-8-yl]-pyridin-4-yl-amine], for which the IC50 in assay [1] and in assay [2] was less than 1000 nM in each case.
Consider `Fc1ccc(Cl)cc1-c1cc(Nc2ccncc2)c2nccnc2n1` [Compound 2, [6-(5-Chloro-2-fluoro-phenyl)-pyrido[2,3-b]pyrazin-8-yl]-pyridin-4-yl-amine], for which the IC50 in assay [1] and in assay [2] was less than 1000 nM throughout.
As to `Nc1nccc2c(-c3cc(-c4ccccc4F)nc4nccnc34)nccc12` [Compound 3, 5-[6-(2-Fluorophenyl)-pyrido[2,3-b]pyrazin-8-yl]-[2,6]naphthyridin-1-ylamine], the IC50 in assay [1] and in assay [2] was less than 1000 nM each time.
In the case of `Nc1nccc2c(-c3cc(-c4ccccc4F)nc4nccnc34)cccc12` [Compound 4, 5-[6-(2-Fluorophenyl)-pyrido[2,3-b]pyrazin-8-yl]-isoquinolin-1-ylamine], the IC50 in assay [1] and in assay [2] was less than 1000 nM each time.
`Nc1nccc2c(-c3cc(-c4cc(Cl)ccc4F)nc4nccnc34)nccc12` [Compound 5, 5-[6-(5-Chloro-2-fluorophenyl)-pyrido[2,3-b]pyrazin-8-yl]-[2,6]naphthyridin-1-ylamine]: the IC50 in assay [1] is less than 1000 nM.
Take `Nc1ncc(-c2cc(-c3ccccc3F)nc3nccnc23)c2ccncc12` [Compound 6, 4-[6-(2-Fluorophenyl)-pyrido[2,3-b]pyrazin-8-yl]-[2,7]naphthyridin-1-ylamine]: the IC50 in assay [1] and in assay [2] was less than 1000 nM throughout.
Consider `Nc1nccc2c(-c3cc(-c4cc(F)ccc4F)nc4nccnc34)nccc12` [Compound 8, 5-[6-(2,5-Difluoro-phenyl)pyrido[2,3-b]pyrazin-8-yl]-2,6-naphthyridin-1-amine], for which the IC50 in assay [1] was less than 1000 nM.
Take `CN1CCC(n2cc(-c3cncc(-c4cc(-c5ccccc5F)nc5nccnc45)c3)cn2)CC1` [Compound 9, 6-(2-Fluorophenyl)-8-{5-[1-(1-methyl-piperidin-4-yl)-1H-pyrazol-4-yl]-pyridin-3-yl}-pyrido[2,3-b] pyrazine]: the IC50 in assay [1] and in assay [2] was less than 1000 nM each time.
For the compound `Cn1cc(-c2cncc(-c3cc(-c4ccccc4F)nc4nccnc34)c2)cn1` [Compound 10, 6-(2-Fluorophenyl)-8-[5-(1-methyl-1H-pyrazol-4-yl)-pyridin-3-yl]-pyrido[2,3-b] pyrazine], the IC50 in assay [1] and in assay [2] was less than 1000 nM in each case.
Turning to `OCCn1cc(-c2cncc(-c3cc(-c4ccccc4F)nc4nccnc34)c2)cn1` [Compound 12, 2-[4-[5-[6-(2-Fluorophenyl)pyrido [2,3-b]pyrazin-8-yl]-3-pyridyl]pyrazol-1-yl]ethanol], the IC50 in assay [1] and in assay [2] was less than 1000 nM each time.
For the compound `Fc1ccc(Cl)cc1-c1cc(Nc2ccnc3ccoc23)c2nccnc2n1` [Compound 14, N-[6-(5-Chloro-2-fluorophenyl)pyrido [2,3-b]pyrazin-8-yl]furo[3,2-b]pyridin-7-amine], the IC50 in assay [1] and in assay [2] was less than 1000 nM in each case.
